Read-outs that look alike come from different tables or passages of the source.

These results are taken from patent EP0018019A1, “Antimicrobial water-soluble compound which contains a rare earth metal cation, its application in oral compositions and method for controlling microorganisms therewith” (priority 1979, dated 1980).

The subject of one data set is Bacillus subtilis. In words: Minimum Bactericidal Concentration of LaLAS. The settings on record: Gram-positive. The format is cell-based. The method, then: (§1) The data are from standard tests for measuring Minimum Bactericidal Concentrations (using a 10-minute contact with the test agent at 37°C; representing at least 3 log unit reduction in viable cell count).
For a further data set, the system named is Strep. faecalis. In words: Minimum Bactericidal Concentration of LaLAS. The format is cell-based. The conditions noted are these: Gram-positive. The method, then: as §1
Data set [1] concerns Ps. aeruginosa ATCC 15442. In words: Minimum Bactericidal Concentration of LaLAS. The format is cell-based. The conditions noted are these: Gram-negative. The method, then: as §1
The test system of another data set is Proteus vulgaris. In words: Minimum Bactericidal Concentration of LaLAS. The format is cell-based. The conditions noted are these: Gram-negative. On the procedure:
as §1

Data set [2] relates to Micrococcus luteus ATCC 4698. In words: Minimum Bactericidal Concentration of LaLAS. Format: cell-based. The settings on record: Gram-positive. On the procedure: as §1
For the next data set, the system named is Staph. aureus ATCC 6538. In words: Minimum Bactericidal Concentration of LaLAS. The format is cell-based. The settings on record: Gram-positive. On the procedure:
as §1

Data set [3] relates to Staph. epidermidis ATCC 14990. In words: Minimum Bactericidal Concentration of LaLAS. Format: cell-based. The conditions noted are these: Gram-positive. The method, then:
as §1

For a further data set, the system named is E. coli ATCC 11775. In words: Minimum Bactericidal Concentration of LaLAS. Format: cell-based. The settings on record: Gram-negative. The method, then:
as §1

For the next data set, the system named is Salmonella typhimurium. In words: Minimum Bactericidal Concentration of LaLAS. Format: cell-based. The conditions noted are these: Gram-negative. On the procedure:
as §1

Data set [4] deals with Kleb. pneumoniae ATCC 4352. In words: Minimum Bactericidal Concentration of LaLAS. The format is cell-based. The settings on record: Gram-negative. On the procedure:
as §1

Data set [5] can be described thus: Stain test on pellicle-coated plastic artificial molars (coffee/tea). The conditions noted are these: for Stain Grade: 0-8 scale (0 no stain, 8 continuous dark brown stain); for promotion of stains: demonstrated by the stain test. On the procedure:
Plastic artificial molars were mounted in the caps of disposable plastic vials using dental cement. A thin, organic pellicle was developed on the teeth by exposure for about 17 hours to pooled human saliva which has been centrifuged for 2 minutes at 500X gravity to remove food and similar debris. The coated teeth were serially exposed for 5 minutes to a solution of the test material, a distilled water rinse, for 5 minutes to a solution of instant coffee and tea (20 grams of commercial instant coffee and 2 grams of commercial instant tea in 1 liter of distilled water), a distilled water rinse, the test solution for 5 minutes, a distilled water rinse, the coffee/tea solution for 5 minutes, and a final distilled water rinse. The teeth were then graded for degree of staining on a 0-8 scale (where 0 was no stain and 8 was continuous dark brown stain) by comparison with a photographic standard.

Another data set deals with dental plaque. In words: In vitro growth of dental plaque on extracted human teeth in growth chambers. The conditions noted are these: plaque-inhibiting solutions for one minute each morning and afternoon, four days; compared with water-treated controls. Format: cell-based. The text has this:
The efficacy of the antimicrobial composition LaLAS was compared with the known anti-plaque agent chlorhexidine digluconate for the prevention of dental plaque, as follows: • Lanthanum 4-(1'-methylnonyl)benzenesulfonate (LaLAS) was used in this test to reduce the in vitro growth of dental plaque on teeth. This was done using a system of glass growth chambers containing clean, extracted, sound human teeth mounted in stainless steel brackets. After sterilization in an autoclave, the growth chambers were inoculated with homogenized human plaque scrapings and serially treated with Trypticase® soy broth, sucrose, artificial saliva, and solutions of plaque-inhibiting materials for four days: The plaque-inhibiting solutions were introduced for one minute each morning and afternoon. After this treatment, the teeth were withdrawn from the growth chambers, stained with an alcoholic solution of basic fuchsin to disclose any plaque that had formed and, after randomization, graded for percent plaque coverage by three trained judges. Percent plaque reduction was calculated by comparison with water-treated controls. [formula]

The nature of data set [6]: Antimicrobial activity of rare earth/surfactant combinations. The format is cell-based. The conditions noted are these: in combination with a rare earth. The method, then:
as §1

Data set [7] in a line: Water solubility / precipitation from solution. Format: physicochemical. The settings on record: in combination with a rare earth. The text has this: Moreover, the compounds herein or their rare earth metal components precipitate from solution at pH's above about 8. See: Moeller and Kremers, Chem. Rev. 37:114 (1945). Moreover, highly acid (below about pH 4) solutions of the surfactants herein have antimicrobial properties in their own right. Of course, compositions intended for oral use should have a pH above about 4 to avoid damage to dental enamel. With certain species of microorganisms, especially with Pityrosporum ovale which is the causative microorganism for dandruff, the compositions herein are optimally active in the pH range of 4.0-4.5.
The present invention specifically encompasses the more water-soluble, antimicrobially-active rare earth/alkyl benzene sulfonate compositions.

The subject of data set [8] is E. coli. In words: Minimum Bactericidal Concentration test. The format is cell-based. The conditions noted are these: 10-minute contact at 37°C. The method, then: as §1
For the next data set, the system named is S. aureus. In words: Minimum Bactericidal Concentration test. The format is cell-based. The conditions noted are these: 10-minute contact at 37°C. The method, then: as §1
Data set [9] concerns E. coli. The format is cell-based. The settings on record: for Log Survivors/ml: approximately 10^7 E. coli/ml, 10 min. at 37°C; for effectiveness as component of the antimicrobial compositions: other polyvalent metals in place of the rare earth, tested in the foregoing manner.
A further data set deals with molds. The conditions noted are these: cited from earlier work.
A further data set deals with Staphylococcus. The conditions noted are these: cited from earlier work.
Where [10] appears, read: inorganic lanthanum salt alone, at least 3 log unit reduction in viable cell count.
Where [11] appears, read: Rare Earth Cation 0.01 mM + 2-C10LAS 0.03 mM.
[12] abbreviates: Rare Earth Cation 0.05 mM + 2-C10LAS 0.15 mM.
[13] abbreviates: Rare Earth Cation 0.1 mM + 2-C10LAS 0.3 mM.
[14] abbreviates: Rare Earth Cation 0.1 mM alone, 2-C10LAS 0 mM.
Setting [15] is: 3 molecular equivalents of Na surfactant to 1 molecular equivalent of LaCl3.

In the case of “lanthanum 4-(l'-methylnonyl)benzenesulfonate [LaLAS]”, the “Minimum Bactericidal Conc. of LaLAS” value with Bacillus subtilis is 500 ppm; with Strep. faecalis it was 32 ppm; in data set [1], 16 ppm; in the data set on Proteus vulgaris, 32 ppm; in data set [2], 125 ppm; in the data set with Staph. aureus ATCC 6538, 32 ppm. In addition, the “Minimum Bactericidal Conc. of LaLAS” value in data set [3] is recorded as 32 ppm; with E. coli ATCC 11775, 32 ppm; with Salmonella typhimurium it was 125 ppm; in data set [4], 125 ppm. The “Stain Grade” value in data set [5] (2000 ppm in 20% EtOH) came out at 0; in data set [5] (2000 ppm test solution), 0.1. Besides, the promotion of stains entry in [5] is “does not”. Further, in the data set on dental plaque, the anti-plaque efficacy result is “equivalent to chlorhexidine digluconate”.
For the compound `CCCCCCCCCCCCc1ccc(S(=O)(=O)O)cc1` [n-C12LAS], the antimicrobial activity entry in data set [6] is “rather poor”. Moreover, in data set [7], the water solubility entry is “rather water-insoluble”.
With `O.O.O.O.O.O.[Cl-].[Cl-].[Cl-].[La+3]` [LaCl3·6H2O, lanthanum chloride hexahydrate], the “Minimum Bactericidal Concentration” value in the data set on E. coli [8] (setting [10]) and in the data set with S. aureus (setting [10]) was >3500 ppm in each case.
For `[Cl][Yb]([Cl])[Cl]` [YbCl3], the “Log Survivors/ml” value in the data set on E. coli [9] (setting [11]) was 0; in the data set on E. coli [9] (setting [12]), 0; in the data set on E. coli [9] (setting [13]), 0; in the data set on E. coli [9] (setting [14]), 2.
For `[Fe]` [iron], the “effectiveness as component of the antimicrobial compositions” value (shortened to “effectiveness as component”) in the data set on E. coli [9] is “ineffective”.
As for `[Cl][Dy]([Cl])[Cl]` [DyCl3], the “Log Survivors/ml” value in the data set with E. coli [9] (setting [11]) is listed as 0; in the data set with E. coli [9] (setting [12]), 0; in the data set on E. coli [9] (setting [13]), 0; with E. coli [9] (setting [14]) it was 3.
In the case of aluminum, the “effectiveness as component” value with E. coli [9] is “ineffective”.
Same read-out and setting: under `[Ca]` [calcium] stands “ineffective”.
In the case of `[Cl][Pr]([Cl])[Cl]` [PrCl3], the “Log Survivors/ml” value in the data set on E. coli [9] (setting [11]) was determined as 0; with E. coli [9] (setting [12]) it was 0; in the data set on E. coli [9] (setting [13]), 0; in the data set on E. coli [9] (setting [14]) it was 3.
With `[Mg]` [magnesium], in the data set with E. coli [9], the “effectiveness as component” value is on record as “ineffective”.
Consider `[H]/N=C(\N/C(=N/[H])NCCCCCCNC(=N)NC(=N)Nc1ccc(Cl)cc1)Nc1ccc(Cl)cc1` [chlorhexidine digluconate], for which, in data set [5], the promotion of stains result is listed as “undesirably promotes stains”.
Consider `[Cl][La]([Cl])[Cl]` [LaCl3], for which the “Log Survivors/ml” value was 0 in the data set on E. coli [9] (setting [11]), 0 in the data set on E. coli [9] (setting [12]), 0 in the data set with E. coli [9] (setting [13]) and 5 with E. coli [9] (setting [14]).
Consider `CCCCCCCCCCCCCCCC[n+]1ccccc1` [Cetylpyridinium chloride], for which the “Stain Grade” value in data set [5] (2000 ppm test solution) was 2.7.
As to `[H]/N=C(\N/C(=N/[H])NCCCCCCNC(=N)NC(=N)Nc1ccc(Cl)cc1)Nc1ccc(Cl)cc1` [Chlorhexidine], the “Stain Grade” value in data set [5] (2000 ppm test solution) stood at 3.2.
Consider `O=[N+]([O-])[O-].O=[N+]([O-])[O-].O=[N+]([O-])[O-].[Ce+3]` [cerium nitrate], for which the “concentration that inhibits molds” value with molds is listed as 1000 ppm. Moreover, the “concentration that inhibits Staphylococcus” value in the data set on Staphylococcus is 1000 ppm.
For the compound `CCCCCCCCC(C)c1ccc(S(=O)(=O)O)cc1` (stereo not shown) [Compound 2-C10LAS, 4-(l'-methylnonyl)benzenesulfonate], in the data set on E. coli [8] (setting [15]), the “Minimum Bactericidal Concentration (ppm) E. coli Na salt + LaCl3” value was found to be 32 ppm. Besides, the MBC in the data set on E. coli [8] (Escherichia coli, 10 min, surfactant as Na salt alone, read-out: Minimum Bactericidal Concentration (ppm) E. coli as Na salt) is > 2000 µg/mL; in the data set with S. aureus (Staphylococcus aureus, 10 min, surfactant as Na salt alone, read-out: Minimum Bactericidal Concentration (ppm) S. aureus as Na salt), 2000 µg/mL. The “Minimum Bactericidal Concentration (ppm) S. aureus Na salt + LaCl3” value in the data set with S. aureus (setting [15]) came to 32 ppm. The “Log Survivors/ml” value with E. coli [9] (Rare Earth Cation 0 mM, 2-C10LAS 0.3 mM alone) is reported as 6.
`[Cl][Nd]([Cl])[Cl]` [NdCl3]: the “Log Survivors/ml” value is 1 in the data set on E. coli [9] (setting [11]), 0 with E. coli [9] (setting [12]), 0 in the data set with E. coli [9] (setting [13]) and 3 in the data set on E. coli [9] (setting [14]).
